Reference: US9011853B2, “B7-H4 fusion proteins and methods of use thereof” (Amplimmune, Inc., priority 2009, dated 2015)
Values joined by “and” are separate entries in the source; they are usually repeats but may differ in a detail not shown here. Identical values can stand only once.

Tested on: serum levels of 58 analytes
Test: Serum biomarker analysis, quantitative immunoassay multi-analyte profiling (Rules-Based Medicine RodentMAP v2.9), AA#80
Assay type: in vivo, mouse
Settings: serum, listed as Human LgG1 Control
Description: In AA#80, serum samples were collected on Day 27, Day 34, Day 41 and Day 55 via the submandibular vein. Approximately 200 μL of blood per mouse was collected in Microtainer® serum separator tubes. Serum was removed following centrifugation and stored at <−65° C. until analysis.
Selected serum samples were sent to Rules-Based Medicine (Austin, Tex.) for quantitative immunoassay multi-analyte profiling of serum samples, with the goal of identifying biomarkers that could be used to monitor disease progression and response to B7-H4-Ig treatment. Day 27, Day 34, and Day 41 sera from the three representative mice in the B7-H4-Ig group (tag #3332, 3334, and 3338) and three representative mice in the Synagis® group (tag #3324, 3329, and 3330) were analyzed for levels of 58 analytes using the RodentMAP v2.9 Testing Service.
Data from the Rules-Based Medicine analysis was analyzed using Microsoft Excel and GraphPad Prism software. T-tests were performed to compare the levels of each analyte in the B7-H4-Ig versus Synagis® treated samples. No correction was made for multiple comparisons. Additionally, correlation coefficients were calculated for each analyte versus disease score.

Synagis®: humanized monoclonal IgG antibody against the F protein of Respiratory Syncytial Virus; used as a human IgG1 isotype control [reference compound]
MDC (Macrophage-Derived Chemokine) (Day 41, LDD 21.85): 1410 pg/mL and 1430 pg/mL and 1150 pg/mL | MCP-3 (Monocyte Chemoattractant Protein-3) (Day 41, LDD 31.36): 235 pg/mL and 236 pg/mL and 242 pg/mL | VEGF (Vescular Endotheial Cell Growth Factor) (Day 41, LDD 38.2): 150 pg/mL and 171 pg/mL and 212 pg/mL | IP-10 (Inducible Protein-10) (Day 41, LDD 40.28): 54.7 pg/mL and 68.1 pg/mL and 66.8 pg/mL | LIF (Leukemia Infabitory Factor) (Day 41, LDD 43.6): 1650 pg/mL and 1580 pg/mL and 1470 pg/mL | MCP-5 (Monocyte Chemoattractant Protein-5) (Day 41, LDD 46.38): 45.6 pg/mL and 47.4 pg/mL and 52.8 pg/mL | SCF (Stem Cell Factor) (Day 41, LDD 75.17): 214 pg/mL and 249 pg/mL and 201 pg/mL | MIP-1beta (Macrophage Inflammatory Protein-1beta) (Day 41, LDD 77.65): 144 pg/mL and 115 pg/mL and 152 pg/mL | Lymphotactin (Day 41, LDD 85.48): 178 pg/mL and 183 pg/mL and 194 pg/mL | VWF (Von Willebrand Factor) (Day 41, LDD 98.6): 131 ng/mL and 103 ng/mL and 111 ng/mL | M-CSF (Macrophage-Colony Stimulating Factor) (Day 27, LDD 0.01795, individual mice): 6.19 ng/mL and 6.6 ng/mL and 6.59 ng/mL | MIP-1gamma (Macrophage Inflammatory Protein-1gamma) (Day 27, LDD 0.0736, individual mice): 36.9 ng/mL and 37.1 ng/mL and 37.9 ng/mL | OSM (Oncostatin M) (Day 27, LDD 0.13, individual mice): <low> (2×) and 0.0103 ng/ml | TNF-alpha (Tumor Necrosis Factor-alpha) (Day 27, LDD 0.137, individual mice): 0.0965 ng/ml and <low> (2×) | KC/GROalpha (Melanoma Growth Stimulatory Activity Protein) (Day 27, LDD 0.1739, individual mice): 0.0804 ng/mL and 0.0795 ng/mL and 0.0633 ng/mL | TEMP-1 (Tissue Inhibitor of Metalicproteinase Type-1) (Day 27, LDD 0.18, individual mice): 1.38 ng/mL and 1.13 ng/mL and 1.23 ng/mL | IL-5 (Interleukin-5) (Day 27, LDD 0.194, individual mice): 0.438 ng/mL and 0.403 ng/mL and 0.264 ng/mL | MIP-1alpha (Macrophage Inflammatory Protein-1alpha) (Day 27, LDD 0.2255, individual mice): 3.03 ng/ml (2×) and 3.32 ng/ml | IL-7 (Interleukin-7) (Day 27, LDD 0.309, individual mice): 0.0593 ng/ml and <low> (2×) | MIP-3beta (Macrophage Inflammatory Protein-3beta) (Day 27, LDD 0.465, individual mice): 2.89 ng/mL and 3.05 ng/mL and 2.6 ng/mL | RANTCS (Regulation Upon Activation Normal T-Cell Expressed and Secreted) (Day 27, LDD 0.5, individual mice): 0.0826 pg/ml and <low> (2×) | Tissue Factor (Day 27, LDD 0.5175, individual mice): 9.17 ng/ml (2×) and 10 ng/ml | MPO (Myeloperoxidase) (Day 27, LDD 0.95, individual mice): 216 ng/mL and 191 ng/mL and 265 ng/mL | SGOT (Serum Glutamic-Oxaloacetic Transaminase) (Day 27, LDD 1.86, individual mice): 84.6 µg/mL and 79.7 µg/mL and 75.4 µg/mL | TPO (Thromboproletin) (Day 27, LDD 2.66, individual mice): 38.9 ng/ml (2×) and 34.2 ng/ml | SAP (Setrum Amtyloid P) (Day 27, LDD 5.4, individual mice): 40.5 µg/mL and 34.2 µg/mL and 42.9 µg/mL | MIP-2 (Macrophage Inflammatory Protein-2) (Day 27, LDD 7.174, individual mice): 16.1 pg/mL and 22.2 pg/mL and 23.4 pg/mL | MMP-9 (Matrix Metalloproteinase-9) (Day 27, LDD 10, individual mice): 166 ng/mL and 177 ng/mL and 431 ng/mL | IL-6 (Interleukin-6) (Day 27, LDD 13.852, individual mice): 6.27 pg/ml (2×) and <low> | MCP-1 (Monocyte Chemoattractant Protein-1) (Day 27, LDD 16.924, individual mice): 74.4 pg/mL and 64.7 pg/mL and 70.5 pg/mL | VCAM-1 (Vescular Cell Adhesion Molecule-1) (Day 27, LDD 19, individual mice): 2260 ng/mL and 2080 ng/mL and 3160 ng/mL | MDC (Macrophage-Derived Chemokine) (Day 27, LDD 21.85, individual mice): 1250 pg/mL and 1310 pg/mL and 1070 pg/mL | Myoglobin (Day 27, LDD 24, individual mice): 8.96 ng/mL and 11.4 ng/mL and 23.8 ng/mL | MCP-3 (Monocyte Chemoattractant Protein-3) (Day 27, LDD 31.36, individual mice): 168 pg/mL and 149 pg/mL and 138 pg/mL | VEGF (Vescular Endotheial Cell Growth Factor) (Day 27, LDD 38.2, individual mice): 144 pg/mL and 136 pg/mL and 139 pg/mL | IP-10 (Inducible Protein-10) (Day 27, LDD 40.28, individual mice): 45.3 pg/mL and 52 pg/mL and 55.5 pg/mL | LIF (Leukemia Infabitory Factor) (Day 27, LDD 43.6, individual mice): 1650 pg/mL and 1390 pg/mL and 1470 pg/mL | MCP-5 (Monocyte Chemoattractant Protein-5) (Day 27, LDD 46.38, individual mice): 35.7 pg/mL and 37.1 pg/mL and 35.5 pg/mL | SCF (Stem Cell Factor) (Day 27, LDD 75.17, individual mice): 226 pg/mL and 207 pg/mL and 220 pg/mL | MIP-1beta (Macrophage Inflammatory Protein-1beta) (Day 27, LDD 77.65, individual mice): 173 pg/ml (2×) and 150 pg/ml | Lymphotactin (Day 27, LDD 85.48, individual mice): 198 pg/mL and 178 pg/mL and 189 pg/mL | VWF (Von Willebrand Factor) (Day 27, LDD 98.6, individual mice): 125 ng/mL and 131 ng/mL and 155 ng/mL
